SMILES strings stand for the structures.

As a reminder, the AC50 is the midpoint of the concentration-response curve, whichever way the signal moves.

The test has as its system SK-MEL-5 TRPM1-promoter luciferase reporter, 24 h. The experiment in a line: reducers of TRPM1 reporter luminescence, concentration series – cell-based, SK-MEL-5, cherry-picked, set 4, MITF inhibitor project, dose response (AID 493102).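 Further: actives lower the luciferase signal so the potency reflects inhibition of reporter expression.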

For the compound `COc1ccccc1N(C(=O)CCl)c1cn(C(C)=O)c2ccccc12`, the AC50 was 8.82 µM.

`O=C(Nc1ccc(Cl)cc1)Nc1cccc(C(=O)O)c1`: the AC50 is 3.79 µM.

`COc1ccc2c(C)nc(Nc3nc(-c4ccccc4)cc(=O)[nH]3)nc2c1`: the half-maximal activity concentration (AC50) is 2.91 µM.

Turning to `Cc1[nH]n(-c2ccccc2)c(=O)c1N=Nc1cccc(C(=O)O)c1`, the AC50 is 8.07 µM.

As to `N=c1n(CCN2CCCC2)c2ccccc2n1CC(O)c1ccc(Cl)c(Cl)c1` (centres undefined), the AC50 was 11.8 µM.

For `CCCCCCn1c(=O)c(C(=O)Nc2cnccn2)c(O)c2ccccc21`, the AC50 is 3.68 µM.

With `COc1cc(/C=N/NC(N)=O)c(Br)cc1OCC(=O)Nc1ccccc1C`, the AC50 is 17.8 µM.

As for `O=C(NC(=S)NCc1ccccc1)c1ccccc1`, the concentration at half-maximal activity (AC50) was 22.1 µM.

For the compound `O=C(COc1ccc(Cl)cc1Cl)Nc1ccccn1`, the AC50 is 2.19 µM.

Regarding `CC1CCC(C(C)C)C(OC(=O)Cn2c(-c3ccc(Br)cc3)[n+](C)c3ccccc32)C1` (centres undefined), the AC50 was 7.12 µM.

Turning to `Cc1cc(NC(=O)c2cncc(Br)c2)ccc1NC(=O)c1cc2ccccc2o1`, the AC50 was 10.4 µM.

Consider `C=CCn1c(C)cc(C(=O)Cn2ncc(Cl)c(Cl)c2=O)c1C`, for which the concentration at half-maximal activity (AC50) was 9.97 µM.

In the case of `O=C(NCc1ccccc1)C(=O)Nc1cccc(C(=O)O)c1`, the AC50 was 4.85 µM.

On to `Cc1ccc(C)c(-n2c3nc(=O)[nH]c(=O)c-3cc3cc([N+](=O)[O-])ccc32)c1`, for which the AC50 is 8.42 µM.

`OCCNc1c2ccccc2nc2ccccc12`: the AC50 is 7.28 µM.

For `CC(C)CC(=O)NC(c1cccs1)c1ccc2cccnc2c1O` (centres undefined), the AC50 was 3.71 µM.

For the compound `CCOc1ccc(NC(=O)Nc2cccc(C(=O)O)c2)cc1`, the AC50 is 1.53 µM.

For the compound `Nc1c(N(CCC2=CCCCC2)C(=O)COc2ccc([N+](=O)[O-])cc2)c(=O)[nH]c(=O)n1Cc1ccccc1`, the AC50 is 14.2 µM.

In the case of `O=C(/C=C/NNC(=O)c1ccccc1)c1ccc([N+](=O)[O-])cc1`, the AC50 is 9.19 µM.

Regarding `O=C(O)CSCC(=O)Nc1ccc(C2CCCCC2)cc1`, the AC50 was 2.12 µM.

Take `CCOC(=O)CCc1ccc(NC(=O)/C=C/c2ccc([N+](=O)[O-])o2)cc1`: the AC50 is 6.83 µM.

As for `CCOc1cc(/C=N/Nc2cccc(C(=O)O)c2)ccc1OC(=O)c1ccccc1`, the AC50 is 1.38 µM.

`COc1ccccc1OCCN1CSC(=S)N(C)C1`: the AC50 was 12.2 µM.

As to `COc1ccc(N(Cc2cc(=O)[nH]c3ccccc23)C(=O)CCl)cc1`, the half-maximal activity concentration (AC50) is 10.9 µM.

Take `Cc1ccc(S(=O)(=O)Nc2cccc3cccnc23)cc1`: the AC50 was 5.55 µM.

In the case of `COc1ccc(CNCCC(c2ccc(F)cc2)c2ccc(OC)cc2)cc1` (centres undefined), the AC50 was 9.89 µM.

Consider `CN1CCC(N(C)C(=O)/C=C/c2cn(-c3ccccc3)nc2-c2cccs2)CC1`, for which the AC50 was 9.82 µM.

`[2H]C(CCOS(N)(=O)=O)c1ccc(C(C)(C)C)cc1` (centres undefined): the AC50 is 0.487 µM.

Consider `O=C1NC2c3c(I)sc(I)c3C(=O)C2O1` (centres undefined), for which the AC50 is 15.5 µM.

`CC1CCC(C(C)C)C(OC(=O)Cn2c(-c3ccc(Cl)cc3)[n+](C)c3ccccc32)C1` (centres undefined): the AC50 is 6.29 µM.

As for `CC(C)(c1ccccc1)c1ccc(OCC(O)CNC2CCN(Cc3ccccc3)CC2)cc1` (centres undefined), the AC50 is 7.94 µM.

With `N=c1n(CC(=O)c2ccc(Br)s2)c2ccccc2n1Cc1ccccc1`, the AC50 was 7.34 µM.

Regarding `COc1cnc(-c2ccccn2)nc1NC(C)C`, the concentration at half-maximal activity (AC50) is 12.4 µM.

Regarding `CCOC(=O)c1nnn(-c2ccc([N+](=O)[O-])cc2[N+](=O)[O-])c1C`, the AC50 was 8.85 µM.

Turning to `CCN1c2ccccc2NC2C1C(C(C)=O)C(=O)N2c1ccc(Cl)cc1` (centres undefined), the concentration at half-maximal activity (AC50) is 12.7 µM.

`Cc1ccc(-c2cn(-c3ccc(SC(F)F)cc3)c3[n+]2CCC3)cc1`: the AC50 was 1.64 µM.

In the case of `COc1ccc(/C=C2\SC(=S)N(CCCC(=O)NNC(=O)c3ccccc3O)C2=O)cc1`, the AC50 was 1.38 µM.

For the compound `CCOc1ccc(NC(=O)CCC(=O)N/N=C/c2ccc([N+](=O)[O-])s2)cc1`, the AC50 was 6.21 µM.

As for `O=C1CN(C(=O)Cn2ncc(Cl)c(Cl)c2=O)c2ccccc2N1`, the AC50 is 8.67 µM.

Turning to `O=C1/C(=N\S(=O)(=O)c2cccs2)C([n+]2ccccc2)=C([O-])c2ccccc21`, the AC50 is 1.07 µM.

With `Cc1nc(NC(=O)/C=C/c2ccccc2)n[nH]1`, the concentration at half-maximal activity (AC50) is 17.8 µM.

For `Cc1cccc(N2C(=O)NC(=O)/C(=C\c3cccn3-c3ccc(Cl)cc3)C2=O)c1`, the AC50 was 8.91 µM.

With `CC(C)C(=O)NC(c1ccco1)c1ccc2cccnc2c1O` (centres undefined), the AC50 is 8.18 µM.

Take `CC(C)=NOc1cc(NC(=O)CCl)cc([N+](=O)[O-])c1`: the AC50 was 6.18 µM.

With `COC1=C(Nc2ccccc2)C(=O)c2ccccc2C1=O`, the AC50 was 4.53 µM.

As to `Cc1ccc(C)c(C(=O)Cn2ncc(Cl)c(Cl)c2=O)c1`, the AC50 was 14.5 µM.

As for `O=S(=O)(c1ccc(F)cc1)c1snnc1-c1ccccc1`, the AC50 is 15.1 µM.

For the compound `O=C(Nc1nc(-c2ccccn2)cs1)c1ccc(F)c(S(=O)(=O)N2CCOCC2)c1`, the AC50 is 5.7 µM.

For the compound `Cc1ccc(S(=O)(=O)/N=C2\C(=O)c3ccccc3C([O-])=C2n2cc[n+](CCC(C)C)c2)cc1`, the half-maximal activity concentration (AC50) was 4.11 µM.

In the case of `C=CCOc1ccc(/C=C2\SC(=S)N(CCC(=O)O)C2=O)cc1`, the AC50 was 0.337 µM.

In the case of `O=C(O)c1cccc(NC(=S)N/N=C/c2ccccn2)c1`, the AC50 is 8.63 µM.

Consider `O=C(Nc1cccc(Cl)c1)Nc1cc(S(=O)(=O)N2CCCCC2)ccc1Cl`, for which the AC50 is 12 µM.

Turning to `O=C1C=CC(=C(c2ccc(O)cc2)c2ccc(O)cc2)C=C1`, the concentration at half-maximal activity (AC50) is 9.92 µM.

In the case of `O=C(Nc1cc(-c2nc3ncccc3o2)ccc1Cl)c1ccc([N+](=O)[O-])o1`, the AC50 was 5.76 µM.

Consider `COCCNC(=O)/C(C#N)=C/c1cccc(/C=C(\C#N)C(=O)NCCOC)c1`, for which the AC50 was 12.7 µM.

As to `O=C(NC1CCCC(C(F)(F)F)C1)c1ccc([N+](=O)[O-])o1` (centres undefined), the concentration at half-maximal activity (AC50) was 11.2 µM.

In the case of `Cc1ccccc1OCc1n(CC(=O)OC2CC(C)CCC2C(C)C)c2ccccc2[n+]1C` (centres undefined), the AC50 is 7.52 µM.

As for `Cc1c(C#N)c(NC(=O)CCl)n(Cc2cccs2)c1C`, the AC50 is 7.06 µM.

Regarding `CCOc1ccc(NC(=O)c2ccccn2)cc1`, the AC50 is 4.4 µM.

For `Cc1ccc(C)c(S(=O)(=O)N2CCN(Cc3ccc(O)c4ncccc34)CC2)c1`, the AC50 was 4.44 µM.

In the case of `COc1cccc(C(=O)Nc2ccc3c(cc2=O)[C@@H](NC(C)=O)CCc2cc(OC)c(OC)c(OC)c2-3)c1`, the AC50 is 8.43 µM.

For the compound `O=C(Nc1ccc(OC(F)(F)F)cc1)c1[nH]ncc1[N+](=O)[O-]`, the AC50 was 0.601 µM.

Take `O=C(O)c1ccc(N/N=C/c2ccc(OC(=O)c3cccc(Cl)c3)cc2)cc1`: the AC50 was 3.21 µM.

With `CCOc1cc(/C=C2/NC(=S)NC2=O)ccc1OCc1ccc([N+](=O)[O-])cc1`, the AC50 was 8.19 µM.

Consider `CCOC(=O)CSC1=NC(=O)/C(=C/c2ccc(OC)cc2)S1`, for which the AC50 was 3.98 µM.

On to `Cc1ccc(C#CC[N+]2(CC#Cc3ccc(C)cc3)CCCCC2)cc1`, for which the AC50 is 3.95 µM.

On to `Cc1cc(C)c2c(N)c(C(=O)Nc3ncc(C)s3)sc2n1`, for which the concentration at half-maximal activity (AC50) is 1.09 µM.

For the compound `CCN(CC)CCC(=O)N1C/C(=C/c2ccccc2)C(=O)/C(=C\c2ccccc2)C1`, the AC50 was 4.72 µM.

`COc1ccccc1CNCC(O)Cn1c2ccccc2c2ccccc21` (centres undefined): the concentration at half-maximal activity (AC50) was 18.7 µM.

As for `CC(C)CC(=O)/C=C/n1c(=S)oc2ccccc21`, the AC50 was 10.5 µM.

Take `Cc1ccc(OCC(=O)N/N=C/c2ccc([N+](=O)[O-])o2)cc1`: the AC50 was 8.9 µM.

As to `CC(Oc1ccccc1)C(=O)Nc1nc(-c2ccccn2)cs1` (centres undefined), the AC50 was 14.1 µM.

In the case of `C/C(=N\NC(=O)Cc1ccc(Cl)cc1)c1ccccn1`, the AC50 was 4.22 µM.

Regarding `Cc1ccc(NC(=O)c2ccc([N+](=O)[O-])s2)cc1S(=O)(=O)N1CCOCC1`, the AC50 is 3.78 µM.

Regarding `O=C(CCl)N1c2ccccc2CCc2ccccc21`, the AC50 is 5.54 µM.

For `COc1ccc(C(=O)/C=C/C(=O)N(CC(=O)NC2CCCCC2)Cc2cccs2)c(O)c1`, the AC50 is 5.53 µM.

With `Cc1c(N=C2C=CC(=O)c3ccccc32)c(=O)n(-c2ccccc2)n1C`, the AC50 was 5.26 µM.

Regarding `O=C(O)c1ccc(C(=O)Nc2ccc(F)cc2)cc1`, the AC50 is 19.8 µM.

`COc1ccc(S(=O)(=O)N(C(C)=O)c2ccc(OC(C)=O)c3ccccc23)cc1[N+](=O)[O-]`: the AC50 was 11.6 µM.

`CCC(C)(C)c1ccc(OCCCC[n+]2ccccc2)c(C(C)(C)CC)c1`: the AC50 was 4.35 µM.

As to `Cn1nnnc1Sc1ncnc2scc(-c3cccc(F)c3)c12`, the concentration at half-maximal activity (AC50) was 5.98 µM.

For `CCN1CCCC1CNC(=O)c1ccc2c(c1)NC(=O)/C(=C\c1ccc(C)cc1)S2` (centres undefined), the AC50 is 18.9 µM.

As for `Cn1nnnc1Sc1ncnc2scc(-c3ccsc3)c12`, the AC50 is 7.95 µM.

As for `O=c1c(Cl)c(Cl)cnn1Cc1ccc(F)cc1`, the AC50 was 8.9 µM.

As to `O=C(O)c1ccc(N/N=C/c2ccc3nccnc3c2)cc1`, the AC50 is 0.696 µM.

In the case of `CCOC(=O)c1ccc2c(c1)n(CC)c(/C=C/N(C)c1ccccc1)[n+]2CC`, the AC50 was 3.24 µM.

For the compound `COC(=O)C1=C(C)N(Cc2ccccc2)C(=NCC(C)C)N[C@H]1c1cccc(C(F)(F)F)c1`, the AC50 was 15 µM.

In the case of `O=C(N/N=C/c1cccc2cccnc12)c1ccccc1O`, the AC50 was 24.8 µM.

As to `CC(C)c1ccc(/C=C2\SC(=S)N(CCC(=O)N3CCCCC3CCO)C2=O)cc1` (centres undefined), the concentration at half-maximal activity (AC50) was 7.43 µM.

Consider `CC1=NC(=O)C(N=Nc2cccc(C(=O)O)c2)N1c1ccccc1` (centres undefined), for which the AC50 is 8.62 µM.

On to `Cc1ccccc1C(=O)N/N=C/c1ccc([N+](=O)[O-])s1`, for which the AC50 was 1.88 µM.

On to `CC1CC(C)CN(C(=O)/C=C/c2ccc([N+](=O)[O-])s2)C1` (centres undefined), for which the AC50 is 11.9 µM.

For `Cc1ccccc1OCC(=O)Nc1cccc(C(=O)O)c1`, the concentration at half-maximal activity (AC50) is 1.05 µM.

As to `CC1=C/C(=N\NC(=S)Nc2cccnc2)CC(C)(C)C1`, the AC50 was 11 µM.

For `Cc1cccc(NC(=O)CNC(=O)Cn2ncc(Cl)c(Cl)c2=O)c1C`, the AC50 was 13.4 µM.

On to `CCOc1cc(NC(=O)CCl)c(OCC)cc1NC(=O)CCl`, for which the AC50 is 5.5 µM.

On to `CC(C)(C)c1ccc(/C=N/Nc2ccc(C(=O)O)cc2)cc1`, for which the half-maximal activity concentration (AC50) is 6.03 µM.

Take `N#CC(C#N)=C1C=CC=CN1/C(=C\c1ccco1)C(=O)c1ccc(Br)cc1`: the AC50 was 5.59 µM.

As to `CC1(C)Cc2c(sc(NC(=O)c3ccc4ncsc4c3)c2C(N)=O)C(C)(C)N1`, the AC50 was 10.1 µM.
